The record followed here is patent publication US20250099420A1, “SMALL MOLECULE MODULATORS OF GPR139 COMPLEX” (University of Florida Research Foundation, Incorporated, priority 2022, published 2025).

Series [1] concerns the target T1, GPR139 (Homo sapiens, UniProt Q6DWJ6).
T1 sequence (Q6DWJ6 1-353): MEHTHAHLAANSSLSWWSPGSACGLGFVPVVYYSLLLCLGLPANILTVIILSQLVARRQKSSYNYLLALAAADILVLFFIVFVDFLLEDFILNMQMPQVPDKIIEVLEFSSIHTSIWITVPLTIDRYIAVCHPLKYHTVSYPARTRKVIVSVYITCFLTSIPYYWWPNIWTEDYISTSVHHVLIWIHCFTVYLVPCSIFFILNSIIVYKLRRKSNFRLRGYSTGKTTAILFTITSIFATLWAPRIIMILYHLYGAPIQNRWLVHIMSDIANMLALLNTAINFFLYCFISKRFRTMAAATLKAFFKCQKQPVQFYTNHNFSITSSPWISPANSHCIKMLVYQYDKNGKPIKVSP
The series is described as follows: GPR139 Antagonist titration assay (calcium detection, HEK-GPR139 cells, vs EC80 of S-JNJ-63533054). To be noted: for GPR139 Antagonist Activity Averaged Max % Response (±St. Dev.): activity relative to known control; for GPR139 Antagonist Activity Lipophilic Efficiency (logD): based on logD; for GPR139 Antagonist Activity Lipophilic Efficiency (logP): based on logP; for GPR139 Antagonist Activity Hill Slope: fitted dose-response curve.
Description: GPR activity was assessed using a calcium detection assay. GPR139 agonists stimulate an increase in intracellular calcium in HEK-GPR139 cells. Agonists increase the release of intracellular calcium, while antagonists decrease the release of intracellular calcium, as compared to an EC80 stimulation of the know agonist S-JNJ-63533054. The positive control for the agonist mode was cells treated with EC100 of known agonist S-JNJ-63533054. Negative control samples were treated with DMSO. The antagonist high control in cells was EC80 of S-JNJ-63533054+IC100 S-JNJ-3792165, while cells were treated with EC80 of S-JNJ-63533054+DMSO for the low control. Intracellular calcium was measured using Calcium 5.
HEK cells were transfected the DNA encoding GPR139 and incubated for 24 hours. 3000 cells/well in 3 μL HEPES and 1% DMSO were seeded into 1536-well plates. 3 μL Calcium 5 was then added to each well and cells were incubated for 60 min. at 37° C. in 5% CO2 and 95% relative humidity. Cells were pretreated with 50 nL DMSO (5 min. at room temperature in the dark) to stabilize response and desensitize cells to DMSO. A 5 second basal read was recorded and compounds in 30 nL were added to the cells, followed by a 150 second read.
B. Antagonist Mode: The “High Control” represented wells containing cells with GPR139+Antagonist IC100+Agonist EC80. “Low Control” represented wells containing cells with GPR139 with EC100 Agonist. “0% control” and sample field represented wells containing cells with GPR139 with EC80 Agonist with DMSO or compounds. The Z′ and S:B for this assay were calculated using the High Control and Low Control wells.
The HEK parental counterscreen utilized the same cells but not transfected with the plasmid. Acetylcholine was used in place of GPR139 agonist as the control compound. The cells were plated overnight, similar to the HEK antagonist counterscreen protocol.
The GPR139 Agonist and Antagonist titration assays employed the same reagents, protocols, and detection systems as the primary assays, but tested each as 10 point dose response starting at 676 nM concentration in triplicate with 1:3 dilutions. The HEK parental counterscreens utilized the same cells but not transfected with the plasmid. Acetylcholine was used in place of GPR139 agonist as the control compound. The cells were plated overnight, similar to the HEK antagonist counterscreen protocol.
For each test compound, percent activation was plotted against compound concentration. A four parameter equation describing a sigmoidal dose-response curve was then fitted with adjustable baseline using Assay Explorer software (Symyx Technologies Inc.).

The target in series [2] is T1, GPR139. Description: GPR139 Agonist titration / agonist counterscreen assay (calcium detection, HEK-GPR139 cells). The series is classed as cell-based. More on the design: expressed in transfected cells; host or cells: HEK Aequorin cells, Maxcyte transient transfection. As to conditions: agonist counterscreen of the antagonists; for EC50: scientific notation, molarity, read-out: GRP139 Agonist activity EC50. As for the experimental part:
GPR activity was assessed using a calcium detection assay. […] Negative control samples were treated with DMSO. […] Intracellular calcium was measured using Calcium 5.
(A counterscreen serves to expose hits that act by an unwanted route or on another target.)

Series [3] deals with T1, GPR139. Description: [3H]JNJ-63533054 radioligand competition binding assay on membranes of HEK293T/17 cells. More on the design: HA signal peptide (HASP) (N); expressed in transfected cells; host or cells: HEK293T/17 cells (membrane preparation). To be noted: for inhibition at 10 µM: 10 μM of the indicated compound, (10 μM) JNJ-63533054 as printed in title; for Ki: Ki=IC50/(1+C/Kd), membranes of HEK293T/17 cells expressing human GPR139, read-out: Ki ± SEM. The text has this:
Eighteen compounds were selected for additional study. The compounds were re-synthesized and tested in radioligand binding competition assays for their ability to displace [^3H]-labeled reference agonist JNJ-63533054 on GPR139. The GPR139 construct used (pCDNA3.1-HASP-HA-GPR139) contained an N-terminal HA signal peptide (HASP), followed by an HA tag and human GPR139 (NM_001002911.4). HEK293T/17 cells were maintained in Dulbecco's modified Eagle's medium with 10% (v/v) fetal bovine serum, nonessential amino acids, and 1 mM sodium pyruvate.
Competition binding assay: Radioligand binding assay used human GPR139 expressed in HEK293T/17 cells. HEK293T/17 cells were transfected pCDNA3.1-HASP-HA-GPR139. 48 h after, cells were detached from plates by pipetting with PBS, centrifuged at 500×g for 5 min, and then the fluid was aspirated away. The cell pellets were frozen with liquid nitrogen and stored at −80° C. Pellets were homogenized in TE buffer (50 mM Tris-HCl, pH 7.4, 5 mM EDTA) and centrifuged at 1000×g at 4° C. for 5 min. Supernatant was collected and recentrifuged at 30,000×g at 4° C. for 30 min. The pellet was rehomogenized in TE buffer and incubated for 60 minutes at room temperature with eight concentrations of [^3H]JNJ-63533054 (specific activity 24.7 Ci/mmol) ranging from 0.024 nM to 400 nM. The binding reaction was terminated by filtration through GF/C filter (Waterman) followed by washes with cold TE buffer. Filters were dried in a hood overnight followed by the addition of scintillation fluid. Bound radioactivity was counted on a Hidex 600 liquid scintillation counter. […] Nonspecific binding was determined with 10 μM JNJ-63533054. The Kd values of the radioligands and IC50 of the antagonist were calculated by Graphpad Prism. Ki values were calculated as Ki=IC50/(1+C/Kd), where C is concentration of the radioligand.
Various concentrations of selected ligands were then added in the presence of 10 nM [^3H]-JNJ-63533054 and their ability to displace [^3H]labeling on cellular membranes was assessed. FIGS. 3B and 3C present representative data obtained in these experiments. […] The results of these experiments are presented in the Table 3 and confirm selective binding the compounds to GPR139 thereby validating their interaction with the intended target.

A further series relates to parental HEK cells. The series is described as follows: HEK parental Antagonist Counterscreen Assay (non-transfected cells, acetylcholine control). The series is classed as cell-based. To be noted: for EC50: Homo sapiens, HEK293, acetylcholine as control, scientific notation, molarity.

Bounds are passed on as bounds.

As usually defined, the EC50 is the concentration giving half of the maximal effect. The inhibition is the relative decrease from the control value, in per cent. As a reminder, the Ki is the equilibrium dissociation constant of an inhibitor or competing ligand from its target. As for `CCN1C(=O)c2cccc3c(S(=O)(=O)Nc4cccc(F)c4)ccc1c23` [SR-01000110577], on GPR139 [1], the EC50 was 6.9 µM, the “GPR139 Antagonist Activity Ligand Efficiency” value was 0.28, the “GPR139 Antagonist Activity Averaged Max % Response (±St. Dev.)” value was determined as 81.68 ± 2.49% and the “GPR139 Antagonist Activity Lipophilic Efficiency (logD)” value worked out at 2.48. For the same molecule, on GPR139 [1], the “GPR139 Antagonist Activity Lipophilic Efficiency (logP)” value is 2.23 and the “GPR139 Antagonist Activity Hill Slope” value came out at 0.62. On GPR139 [2], the “GRP139 Agonist activity Averaged Max % Response (±St. Dev.)” value is on record as 5.61 ± 4.33% and the EC50 is above 14.1 µM. Besides, on GPR139 [3], the inhibition at 10 µM was -117 ± 2.89% and the Ki was 8.03 ± 0.18 µM. For the same molecule, in the series on parental HEK cells, the “HEK antagonist activity Averaged Max % Response (±St. Dev.)” value is given as 24.57 ± 3.75% and the EC50 was above 14.1 µM.
Take `O=C(NCCC1=CCCCC1)N1c2ccccc2Sc2ccccc21` [SR-01000452455-1 analog]: at GPR139 [3], the inhibition at 10 µM is 107 ± 1.95% and the Ki worked out at 1.68 ± 0.04 µM.
Regarding `Brc1ccc2[nH]cc(-c3nnc4ccc5ccccc5n34)c2c1` [SR-01000524226], at GPR139 [1], the concentration for a half-maximal effect (EC50) stood at 10.2 µM, the “GPR139 Antagonist Activity Ligand Efficiency” value turned out to be 0.30, the “GPR139 Antagonist Activity Averaged Max % Response (±St. Dev.)” value is recorded as 60.57 ± 14.37% and the “GPR139 Antagonist Activity Lipophilic Efficiency (logD)” value is listed as 1.28. Also, at GPR139 [1], the “GPR139 Antagonist Activity Lipophilic Efficiency (logP)” value was found to be 1.28 and the “GPR139 Antagonist Activity Hill Slope” value is reported as 1.32. Besides, on GPR139 [2], the “GRP139 Agonist activity Averaged Max % Response (±St. Dev.)” value is reported as −11.2 ± 4.96% and the EC50 was above 13.3 µM. In addition, in the series with parental HEK cells, the “HEK antagonist activity Averaged Max % Response (±St. Dev.)” value is −2.2E+0 ± 7.28 ^ % and the concentration for a half-maximal effect (EC50) is above 13.3 µM.
Take `COc1ccc(C(C(=O)NC(C)c2ccccc2)(c2ccccc2)c2ccccc2)cc1` (stereo not drawn) [SR-01000529482]: at GPR139 [1], the EC50 came out at 7.9 µM, the “GPR139 Antagonist Activity Ligand Efficiency” value is recorded as 0.22, the “GPR139 Antagonist Activity Averaged Max % Response (±St. Dev.)” value is reported as 56.80 ± 4.90% and the “GPR139 Antagonist Activity Lipophilic Efficiency (logD)” value is given as −1.1E+0. At GPR139 [1], the “GPR139 Antagonist Activity Lipophilic Efficiency (logP)” value was −1.1E+0 and the “GPR139 Antagonist Activity Hill Slope” value is given as 0.94. On GPR139 [2], the “GRP139 Agonist activity Averaged Max % Response (±St. Dev.)” value was found to be 3.89 ± 5.42% and the EC50 is above 10.8 µM. For the same molecule, in the series on parental HEK cells, the “HEK antagonist activity Averaged Max % Response (±St. Dev.)” value is listed as 16.45 ± 6.46% and the EC50 is above 10.8 µM.
For `O=C(CSc1nc(-c2ccccc2)cn1-c1ccc(F)cc1)Nc1ccccc1` [SR-01000555413], at GPR139 [1], the concentration giving a half-maximal response (EC50) was found to be 5 µM, the “GPR139 Antagonist Activity Ligand Efficiency” value is recorded as 0.26, the “GPR139 Antagonist Activity Averaged Max % Response (±St. Dev.)” value was 77.15 ± 0.74% and the “GPR139 Antagonist Activity Lipophilic Efficiency (logD)” value is −521.6E−3. Further, at GPR139 [1], the “GPR139 Antagonist Activity Lipophilic Efficiency (logP)” value is reported as −521.7E−3 and the “GPR139 Antagonist Activity Hill Slope” value is on record as 1.24. For the same molecule, at GPR139 [2], the “GRP139 Agonist activity Averaged Max % Response (±St. Dev.)” value is 5.85 ± 3.71% and the concentration giving a half-maximal response (EC50) was above 11.3 µM. Further, in the series on parental HEK cells, the “HEK antagonist activity Averaged Max % Response (±St. Dev.)” value was −6.1E+0 ± 7.39 ^ % and the 50% effective concentration (EC50) was above 11.3 µM.
Consider `Cc1ccc(-n2cc(-c3ccccc3)nc2OCC(=O)Nc2ccccc2C)cc1` [SR-01000555462], for which, on GPR139 [1], the EC50 came to 5.2 µM, the “GPR139 Antagonist Activity Ligand Efficiency” value was 0.25, the “GPR139 Antagonist Activity Averaged Max % Response (±St. Dev.)” value is reported as 71.75 ± 3.35% and the “GPR139 Antagonist Activity Lipophilic Efficiency (logD)” value is −1.4E+0. Also, at GPR139 [1], the “GPR139 Antagonist Activity Lipophilic Efficiency (logP)” value is given as −1.4E+0 and the “GPR139 Antagonist Activity Hill Slope” value turned out to be 0.81. On GPR139 [2], the “GRP139 Agonist activity Averaged Max % Response (±St. Dev.)” value is given as 1.48 ± 6.53% and the EC50 was above 11 µM. For the same molecule, in the series with parental HEK cells, the “HEK antagonist activity Averaged Max % Response (±St. Dev.)” value amounted to 9.21 ± 12.02% and the EC50 was above 11 µM.
